From PubChem BioAssay AID1963840 (Molecular Pharmacology Branch, DTP, NCI, 2024)

Test system: 695427-040-R-J1-PDC complex spheroid viability
Assay: Anticancer human tumor 695427-040-R-J1-PDC patient-derived colon adenocarcinoma cell line growth inhibition [POLQ]
Conditions: for IC50: curve of first compound; for viability, T/C: stronger effect = lower value; active means viability on the fitted dose curve at most 10% of control; inactive means the rest
How it was run: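 Complex spheroid viability model combining PDC tumour cells with endothelial (HUVEC) and MSC stromal cells. Novobiocin, ART-558 or RP6685 were tested singly and in combination with standard and investigational anticancer drugs. Each was titrated in half-log steps from near clinical Cmax, or from 10 microM where Cmax was unknown.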

[1] = second compound 0.0316 µM, first compound 0.0316 µM
[2] = second compound 0.0316 µM, first compound 0.1 µM
[3] = second compound 0.0316 µM, first compound 0.316 µM
[4] = second compound 0.0316 µM, first compound 1 µM
[5] = second compound 0.0316 µM, first compound 3.16 µM
[6] = second compound 0.0316 µM, first compound 10 µM
[7] = second compound 0.1 µM, first compound 0.0316 µM
[8] = second compound 0.1 µM, first compound 0.1 µM
[9] = second compound 0.1 µM, first compound 0.316 µM
[10] = second compound 0.1 µM, first compound 1 µM
[11] = second compound 0.1 µM, first compound 3.16 µM
[12] = second compound 0.1 µM, first compound 10 µM
[13] = second compound 0.316 µM, first compound 0.0316 µM
[14] = second compound 0.316 µM, first compound 0.1 µM
[15] = second compound 0.316 µM, first compound 0.316 µM
[16] = second compound 0.316 µM, first compound 1 µM
[17] = second compound 0.316 µM, first compound 3.16 µM
[18] = second compound 0.316 µM, first compound 10 µM
[19] = second compound 1 µM, first compound 0.0316 µM
[20] = second compound 1 µM, first compound 0.1 µM
[21] = second compound 1 µM, first compound 0.316 µM
[22] = second compound 1 µM, first compound 1 µM
[23] = second compound 1 µM, first compound 3.16 µM
[24] = second compound 1 µM, first compound 10 µM
[25] = second compound 3.16 µM, first compound 0.0316 µM
[26] = second compound 3.16 µM, first compound 0.1 µM
[27] = second compound 3.16 µM, first compound 0.316 µM
[28] = second compound 3.16 µM, first compound 1 µM
[29] = second compound 3.16 µM, first compound 3.16 µM
[30] = second compound 3.16 µM, first compound 10 µM
[31] = second compound 10 µM, first compound 0.0316 µM
[32] = second compound 10 µM, first compound 0.1 µM
[33] = second compound 10 µM, first compound 0.316 µM
[34] = second compound 10 µM, first compound 1 µM
[35] = second compound 10 µM, first compound 3.16 µM
[36] = second compound 10 µM, first compound 10 µM
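Further: spheroids exposed to compounds for seven days.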
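Wherever viability, T/C is given: 100% = DMSO vehicle control viability.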

COc1cc2cc(C(=O)CCC(=O)O)sc2cc1OC + COC1C(OC(N)=O)C(O)C(Oc2ccc3c(O)c(NC(=O)c4ccc(O)c(CC=C(C)C)c4)c(=O)oc3c2C)OC1(C)C
inactive: viability, T/C [1] 98.3% | viability, T/C [2] 86.9% | viability, T/C [3] 101% | viability, T/C [4] 104% | viability, T/C [5] 112% | viability, T/C [6] 107% | viability, T/C [7] 117% | viability, T/C [8] 103% | viability, T/C [9] 106% | viability, T/C [10] 99.2% | viability, T/C [11] 109% | viability, T/C [12] 103% | viability, T/C [13] 108% | viability, T/C [14] 105% | viability, T/C [15] 99.8% | viability, T/C [16] 107% | viability, T/C [17] 101% | viability, T/C [18] 99.3% | viability, T/C [19] 104% | viability, T/C [20] 109% | viability, T/C [21] 100% | viability, T/C [22] 106% | viability, T/C [23] 101% | viability, T/C [24] 103% | viability, T/C [25] 102% | viability, T/C [26] 94.2% | viability, T/C [27] 97.4% | viability, T/C [28] 106% | viability, T/C [29] 103% | viability, T/C [30] 93.8% | viability, T/C [31] 102% | viability, T/C [32] 102% | viability, T/C [33] 114% | viability, T/C [34] 120% | viability, T/C [35] 104% | viability, T/C [36] 109%
> 10 µM: IC50 (second compound 0.0316 µM) | IC50 (second compound 0.1 µM) | IC50 (second compound 0.316 µM) | IC50 (second compound 1 µM) | IC50 (second compound 3.16 µM) | IC50 (second compound 10 µM)

COc1ccc([C@@H](O)c2cc(-c3ncnc4cc(N5CCOCC5)ccc34)c(F)cc2Cl)nn1 + COC1C(OC(N)=O)C(O)C(Oc2ccc3c(O)c(NC(=O)c4ccc(O)c(CC=C(C)C)c4)c(=O)oc3c2C)OC1(C)C
> 10 µM: IC50 (second compound 0.0316 µM) | IC50 (second compound 0.1 µM) | IC50 (second compound 0.316 µM) | IC50 (second compound 1 µM) | IC50 (second compound 3.16 µM) | IC50 (second compound 10 µM)
inactive: viability, T/C [1] 104% | viability, T/C [2] 99.5% | viability, T/C [3] 105% | viability, T/C [4] 92.9% | viability, T/C [5] 75.5% | viability, T/C [6] 56% | viability, T/C [7] 114% | viability, T/C [8] 104% | viability, T/C [9] 104% | viability, T/C [10] 94.2% | viability, T/C [11] 76.7% | viability, T/C [12] 57.9% | viability, T/C [13] 127% | viability, T/C [14] 99.1% | viability, T/C [15] 99% | viability, T/C [16] 89.9% | viability, T/C [17] 76.8% | viability, T/C [18] 51.5% | viability, T/C [19] 94.9% | viability, T/C [20] 92.3% | viability, T/C [21] 98.3% | viability, T/C [22] 91.5% | viability, T/C [23] 82% | viability, T/C [24] 54.5% | viability, T/C [25] 105% | viability, T/C [26] 101% | viability, T/C [27] 97% | viability, T/C [28] 98.4% | viability, T/C [29] 83.5% | viability, T/C [30] 57.6% | viability, T/C [31] 101% | viability, T/C [32] 89.6% | viability, T/C [33] 94.4% | viability, T/C [34] 101% | viability, T/C [35] 76.8% | viability, T/C [36] 51.7%
